Among the test systems are SK-MEL-28 melanoma; ACHN renal; HCT-116 colon; MDA-N; UACC-62 melanoma; HCC-2998 colon; BT-549 breast; SF-268 CNS; SW-620 colon.
Common to all, as to experiment: NCI tumour cell line growth inhibition, 48 h

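Where inhibition never reached the appropriate level, the endpoint shown equals the highest concentration tested. Otherwise, values were interpolated linearly from a five-concentration, 48-hour dose response in 96-well plates. The concentration for full growth arrest is given as TGI.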 Where only a bound is given, the exact number is not on record here.

With `COc1ccc2c(O)c(S(=O)(=O)c3ccc(C)cc3)c(=O)oc2c1OC`, the TGI with SK-MEL-28 melanoma, in the assay with ACHN renal, in the assay on HCT-116 colon, with MDA-N, in the assay on UACC-62 melanoma and with HCC-2998 colon was > 100 µM in each case. The TGI in the assay with BT-549 breast, in the assay on SF-268 CNS and in the assay with SW-620 colon was > 100 µM throughout.
As for `N#Cc1c2ccc([N+](=O)[O-])cc2c(=O)n2c1[nH]c1ccc(C(F)(F)F)cc12`, the TGI in the assay on SK-MEL-28 melanoma is > 85.4 µM; in the assay with ACHN renal, > 100 µM; with HCT-116 colon, > 41.6 µM; with MDA-N, > 100 µM; in the assay on UACC-62 melanoma, > 100 µM; with HCC-2998 colon, > 100 µM. In addition, the TGI in the assay on BT-549 breast, in the assay on SF-268 CNS and in the assay on SW-620 colon was > 100 µM in each case.
As to `CCc1ccc2[nH]c(O)c(C3=Nc4ccccc4C3=O)c2c1`, the TGI with SK-MEL-28 melanoma was > 100 µM; in the assay with ACHN renal, 24.8 µM; in the assay on HCT-116 colon, 35.4 µM; in the assay on MDA-N, > 100 µM; in the assay on UACC-62 melanoma it was 43.3 µM; in the assay with HCC-2998 colon, 53.2 µM. Besides, the TGI in the assay with BT-549 breast is 72.8 µM; with SF-268 CNS, 90.6 µM; in the assay with SW-620 colon, > 100 µM.
As to `N=c1oc2ccccc2cc1-c1nc2ccccc2[nH]1`, the TGI with SK-MEL-28 melanoma was > 100 µM; in the assay with ACHN renal, 45.4 µM; with HCT-116 colon, > 100 µM; in the assay on MDA-N, 40.5 µM; with UACC-62 melanoma, > 100 µM; in the assay on HCC-2998 colon it was > 100 µM. Also, the TGI in the assay on BT-549 breast was 87.4 µM; in the assay with SF-268 CNS it was > 100 µM; in the assay on SW-620 colon, > 100 µM.
For the compound `O=C(Nc1cccc(F)c1)c1cc2ccc(O)cc2oc1=Nc1cccc(F)c1`, the TGI with SK-MEL-28 melanoma, in the assay with ACHN renal, in the assay with HCT-116 colon, with MDA-N, in the assay on UACC-62 melanoma and in the assay on HCC-2998 colon was > 100 µM each time. The values for the TGI in the assay on BT-549 breast, in the assay on SF-268 CNS and in the assay with SW-620 colon were 34.3 µM, > 100 µM and > 100 µM, respectively.
In the case of `C[C@@H](C[C@H]1OC(C)(C)O[C@@H]1C(C)(C)O)[C@H]1CC=C2[C@]3(C)[C@H](O)C[C@H]4C(C)(C)[C@H](O)CC[C@]4(C)[C@H]3CC[C@]21C`, the TGI in the assay with SK-MEL-28 melanoma worked out at 18.6 µM; in the assay with ACHN renal, 15.8 µM; in the assay on HCT-116 colon, 16 µM; in the assay with MDA-N, 16.8 µM; with UACC-62 melanoma it was 34 µM; in the assay with HCC-2998 colon, 15.8 µM. The TGI in the assay with BT-549 breast came out at 22.4 µM; in the assay with SF-268 CNS, 31.4 µM; in the assay with SW-620 colon, 19.4 µM.
Take `CC(C)=NOC(=O)CNC(=O)C(Cc1ccccc1)NC(=O)C(C)NC(=O)OC(C)(C)C` (centres undefined): the TGI with SK-MEL-28 melanoma, in the assay with ACHN renal, with HCT-116 colon, in the assay with MDA-N, with UACC-62 melanoma and with HCC-2998 colon was > 100 µM in each case. Also, the TGI in the assay with BT-549 breast, in the assay on SF-268 CNS and in the assay with SW-620 colon was > 100 µM throughout.
In the case of `O=C1CCCC/C1=C\c1ccc([N+](=O)[O-])cc1`, the TGI was determined as 23.5 µM in the assay with SK-MEL-28 melanoma; 68.1 µM in the assay on ACHN renal; 25.7 µM in the assay with HCT-116 colon; 41.5 µM with MDA-N; 30.7 µM in the assay with UACC-62 melanoma; 27.2 µM in the assay with HCC-2998 colon. The TGI was 59.3 µM in the assay on BT-549 breast and > 100 µM in the assay on SF-268 CNS.
For `Cc1cccc2[nH]c3c(c(O)cc4[nH]c5cccc(C)c5c(=O)c43)c(=O)c12`, the TGI with SK-MEL-28 melanoma, in the assay with ACHN renal, in the assay with HCT-116 colon, in the assay on MDA-N, in the assay with UACC-62 melanoma and with HCC-2998 colon was > 10 µM throughout. For the same compound, the TGI in the assay on BT-549 breast, in the assay on SF-268 CNS and with SW-620 colon was > 10 µM throughout.
Consider `CCC(=O)N/S(=N/S(=O)(=O)c1ccccc1)C(Cl)(Cl)Cl` (centres undefined), for which the TGI with SK-MEL-28 melanoma, in the assay on ACHN renal, with HCT-116 colon, in the assay with MDA-N, with UACC-62 melanoma and in the assay with HCC-2998 colon was > 100 µM in each case. The TGI with BT-549 breast, in the assay on SF-268 CNS and with SW-620 colon was > 100 µM throughout.
In the case of `O=C(N=Nc1ccc(Cl)cc1Cl)NNc1ccc(Cl)cc1Cl`, the TGI stood at 53.9 µM in the assay with SK-MEL-28 melanoma; 42.5 µM with ACHN renal; 28.7 µM in the assay with HCT-116 colon; 35.1 µM in the assay on MDA-N; 29 µM in the assay with UACC-62 melanoma; 23.9 µM in the assay on HCC-2998 colon. Moreover, the TGI in the assay with BT-549 breast stood at 39.7 µM; in the assay with SF-268 CNS it was 97.5 µM; with SW-620 colon, 45.8 µM.
Consider `Cc1ccc2nc3n[nH]c(N)c3nc2c1`, for which the TGI with SK-MEL-28 melanoma, in the assay on ACHN renal, in the assay on HCT-116 colon, with MDA-N, in the assay on UACC-62 melanoma and in the assay on HCC-2998 colon was > 100 µM in each case. Further, the TGI with BT-549 breast, with SF-268 CNS and in the assay on SW-620 colon was > 100 µM each time.
With `Clc1ccc(-c2cc(-c3cc4cc(Br)ccc4nc3Cl)on2)cc1`, the TGI is 29.3 µM in the assay with SK-MEL-28 melanoma; > 50 µM with ACHN renal; 30.7 µM with HCT-116 colon; 30.6 µM in the assay with MDA-N; > 50 µM with UACC-62 melanoma; 23.9 µM in the assay on HCC-2998 colon. In addition, the results for the TGI in the assay on BT-549 breast, with SF-268 CNS and in the assay with SW-620 colon were > 50 µM, 28.6 µM and 27.5 µM, respectively.
With `CC(O)c1cc2c(s1)C(=O)c1c(C(C)O)csc1C2=O` (centres undefined), the TGI stood at 0.466 µM in the assay on SK-MEL-28 melanoma; 1.38 µM with ACHN renal; 1.07 µM with HCT-116 colon; 0.0483 µM with MDA-N; 0.183 µM with UACC-62 melanoma; 1.07 µM in the assay with HCC-2998 colon. Moreover, the results for the TGI in the assay on BT-549 breast, in the assay with SF-268 CNS and in the assay on SW-620 colon were 0.378 µM, 1.32 µM and 0.833 µM, respectively.
For the compound `O=C1/C(=C\c2ccc(Br)cc2)CCCc2ccccc21`, the TGI with SK-MEL-28 melanoma turned out to be 40.9 µM; in the assay with ACHN renal, 30.6 µM; with HCT-116 colon, 24.8 µM; in the assay on MDA-N, 47 µM; with UACC-62 melanoma, 26.5 µM; in the assay on HCC-2998 colon, 30.1 µM. Moreover, the TGI came to 55.9 µM with BT-549 breast, 37.1 µM in the assay on SF-268 CNS and 43 µM in the assay on SW-620 colon.

Source of the values: PubChem BioAssay (NCI).
